From PMC9074039, “Molecular analysis and essentiality of Aro1 shikimate biosynthesis multi-enzyme in Candida albicans” (Life Science Alliance, 2022)

What was measured:
Aro1EPSPS = molecular target: T1, Aro1EPSPS (Candida albicans, UniProt Q5AME2); test: X-ray crystal structure, […] A; assay type: binding; details: co-crystallised with 1 mM shikimate-3-phosphate, pH 8; closed conformation
T1 construct: gene ARO1; EPSPS domain, residues 387-844, expressed in E. coli BL21(DE3) Gold, His6-TEV tag cut; strain SC5314 printed for the full-length clone pLC1335
T1 sequence (Q5AME2 387-844): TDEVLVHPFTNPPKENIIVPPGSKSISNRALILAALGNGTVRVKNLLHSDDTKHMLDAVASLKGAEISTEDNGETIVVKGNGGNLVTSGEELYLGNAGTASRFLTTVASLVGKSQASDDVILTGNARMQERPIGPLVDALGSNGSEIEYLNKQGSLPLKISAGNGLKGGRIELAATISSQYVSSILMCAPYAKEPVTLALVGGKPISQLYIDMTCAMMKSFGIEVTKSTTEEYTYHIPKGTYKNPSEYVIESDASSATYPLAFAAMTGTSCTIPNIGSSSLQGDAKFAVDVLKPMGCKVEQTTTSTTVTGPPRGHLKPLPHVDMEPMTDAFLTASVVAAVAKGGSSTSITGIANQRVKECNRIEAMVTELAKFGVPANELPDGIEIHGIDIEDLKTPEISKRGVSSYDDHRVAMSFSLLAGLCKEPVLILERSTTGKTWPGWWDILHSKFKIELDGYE

Aro1DHQS = molecular target: T2, Aro1DHQS (Candida albicans, UniProt Q5AME2); test: X-ray crystal structure, […] A; assay type: binding; details: co-crystallised with 2 mM NADH and 0.5 mM ZnCl2; one NADH per chain
T2 construct: gene ARO1; N-terminal DHQS domain, residues 1-387, expressed in E. coli BL21(DE3) Gold, His6-TEV tag cut; dimer in crystal; strain SC5314 printed for the full-length clone pLC1335
T2 sequence (Q5AME2 1-387): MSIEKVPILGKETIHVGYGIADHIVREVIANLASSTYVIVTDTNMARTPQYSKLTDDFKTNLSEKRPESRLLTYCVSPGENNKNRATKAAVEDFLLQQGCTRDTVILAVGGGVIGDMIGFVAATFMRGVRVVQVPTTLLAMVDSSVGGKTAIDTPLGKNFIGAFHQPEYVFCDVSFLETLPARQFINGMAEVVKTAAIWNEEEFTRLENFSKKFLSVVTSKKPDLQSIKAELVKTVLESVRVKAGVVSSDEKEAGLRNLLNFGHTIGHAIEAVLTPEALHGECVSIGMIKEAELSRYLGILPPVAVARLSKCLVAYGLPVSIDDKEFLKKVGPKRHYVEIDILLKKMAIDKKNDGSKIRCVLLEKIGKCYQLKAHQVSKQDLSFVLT

Structure (SMILES)	X-ray crystal structure, 1.85 A (Aro1EPSPS)	X-ray crystal structure, 1.85 A (Aro1DHQS)
O=C(O)C1=C[C@@H](OP(=O)(O)O)[C@@H](O)[C@H](O)C1 [S3P, shikimate-3-phosphate]	additional electron density corresponding to a molecule of this substrate in the cleft	
NC(=O)C1=CN([C@@H]2O[C@H](COP(=O)(O)OP(=O)(O)OC[C@H]3O[C@@H](n4cnc5c(N)ncnc54)[C@H](O)[C@@H]3O)[C@@H](O)[C@H]2O)C=CC1 [NADH]		one NADH molecule bound to each copy of this fragment
